In patent US20220031849A1, “NANOPARTICLE ENCAPSULATION TO TARGET G PROTEIN-COUPLED RECEPTORS IN ENDOSOMES” (TAKEDA PHARMACEUTICAL COMPANY LIMITED, priority 2018, published 2022):
Ends that are not written are not given here.

Legend:
[1] = tested on: CFA-evoked mechanical hyperalgesia in mice; test: Complete Freund's adjuvant-evoked mechanical hyperalgesia, von Frey filaments; type: in vivo; details: for Inhibition of CFA hyperalgesia at 1.5 h: 5 μl i.t., 48 h after CFA
[2] = tested on: SNS-evoked mechanical hyperalgesia in rats; test: Sural nerve spared (SNS) mechanical hyperalgesia, Randall-Selitto; type: in vivo
[3] = tested on: CFA-induced mechanical hyperalgesia; details: Proc. Natl. Acad. Sci. USA. 114(46):12309-12314; cited from earlier work
HEK-293 cells = test: Uptake and disassembly of Coumarin 153 loaded nanoparticles; type: cell-based; details: 30 min pre-incubation with inhibitor
Description: The uptake and disassembly of DIPMA nanoparticles loaded with Coumarin153 (DIPMA-CO), which emits in an aqueous environment but not in the hydrophobic core, were examined by high content imaging (confocal microscopy).
Uptake and disassembly of nanoparticles in HEK-293 cells. Coumarin 153 is a solvatochromic dye that fluoresces only in polar solvents, allowing detection of the release of Coumarin loaded in the core of nanoparticles observed as the appearance of Coumarin fluorescence in intact cells. nanoparticles were self-assembled using 0.5 mg of Coumarin 153 per mg of DIPMA polymer (DIPMA-CO). HEK-293 cells were pre-incubated for 30 min with vehicle (Hank's Balanced Salt Solution, HBSS), dynamin inhibitor (Dyngo4a, Dy4, 30 μM), clathrin inhibitor (Pitstop, PS2, 30 μM), vacuolar H^+ATPase inhibitor (Bafilomycin A1, BFA, 1 μM) or NH4Cl (20 mM) to alkalinize endosomes. Images were obtained with a Leica SP8 confocal microscope using HCX PL APO 63× (NA […]) oil objective. Images were taken every 10 see for 30 min, where the first 5 readings correspond to baseline images prior the addition of DIPMA-CO nanoparticles (20 μg/mL). All images were analyzed using Fiji.

[4] = tested on: capsaicin-evoked mechanical allodynia in mice; test: Capsaicin-evoked mechanical allodynia, von Frey filaments; type: in vivo; details: for Time at which the effect is lost / not detected: i.t.
Procedure: However, the same behaviour on the decay of the effect was observed.
AP, nanoparticles or vehicle (5 μl) was administered by intrathecal injection to mice 30 min before intraplantar injection to the hind paw of capsaicin, which activates TRPV1 to cause acute allodynia and neurogenic inflammation. Withdrawal responses to stimulation of the plantar surface of the injected hindpaw with calibrated von Frey filaments (VFF) were measured before and after capsaicin. In mice receiving vehicle or DIPMA-empty nanoparticles, capsaicin decreased the VFF threshold from 0.5-4 h, consistent with mechanical allodynia, which returned to baseline after 24 h (FIG. 18B).
Drug administration. Mice. […] Rats. […] Treatments were administered 10 days after sural nerve transection.
Acute pain. Capsaicin (CAP, 5 μg) or vehicle (0.9% NaCl) was administered by subcutaneous intraplantar (i.pl.) injection (10 μL) into the left hindpaw of sedated mice (2% isoflurane) 30 min after i.t. injection of drugs.
Mechanical allodynia and hyperalgesia. Mechanical nociception was assessed by measuring withdrawal thresholds to stimulation of the plantar surfaces of the ipsilateral and contralateral hindpaws with calibrated von Frey filaments (VFF). Prior to experiments, mice were acclimatized to the experimental apparatus and environment for 2 h on 2 successive days. VFF withdrawal thresholds were measured in triplicate to establish a baseline for each mouse. For the CAP model, VFF withdrawal thresholds were measured at 30 min intervals for the first 2 h after i.t. drug administration, then at 60 min intervals for the next 2 h, and finally after 24 h. For the CFA model, VFF withdrawal thresholds were measured every 30 min for the first 3 h after i.t. drug administration, then at 60 min intervals for the next 5 h, and finally after 24 h. Results were normalized to the baseline withdrawal thresholds of each mouse.

[5] = tested on: chronic pain model in rats; test: Chronic pain model by ligation of the sciatic nerve, Randall-Selitto (Example 10); type: in vivo; details: 300 nM aprepitant, i.t. 10 μL
Description: The chronic pain model was induced by ligation of the sciatic nerve, allowing sensitisation to pain (allodynia, hyperalgesia) to develop for 10 days. Sensitisation was confirmed measuring baseline (pre-surgery) and post-surgery paw withdrawal using a Randall-Selitto electronic algesimeter (Eva Santos-Nogueira, et al. J Neurotrauma. 2012, 29(5): 898-904). […] As is evident, aprepitant-loaded nanoparticles provide greater analgesia and longer lasting effects.

[6] = tested on: C-fiber reflex and wind-up in SNS rats; test: C-fiber-evoked nociceptive reflex and wind-up in SNS rats; type: in vivo; details: 10 μl, 1 μM intrathecal
[7] = tested on: NK1R-positive lamina I neurons; test: Cell-attached patch clamp of SP-induced excitation in rat spinal cord slices; type: cell-based; details: 100 nM AP preincubation, washed; SP 1 μM, 2 min
Procedure: The firing time was determined as the duration of the response to last action potential.

CN1CC[C@]23c4c5ccc(O)c4O[C@H]2[C@@H](O)C=C[C@H]3[C@H]1C5 [morphine]
Effect on mechanical hyperalgesia after 0.5 h ([1]; 3 mg/kg, i.p.): fully reversed the mechanical hyperalgesia
Time at which the effect waned to baseline ([1]; 3 mg/kg, i.p.): 3 h
Duration of full reversal of hyperalgesia ([2]; morphine): 2 h
Time after which the effect was absent ([2]; morphine): 2.5 h

CGRP8-37-Chol: cholestanol conjugate of CGRP8-37 (VTHRLAGLLSRSGGVVKNNFVPTNVGSKAF; ends and bridges not checked; also: cholestanol conjugate; UniProt P06881 90-119, looked up, fragment)
Reversal of mechanical hyperalgesia [3]: ~20%

Cl.N [NH4Cl]
Effect of inhibitor on cellular fluorescence of DIPMA-CO nanoparticles (HEK-293 cells): suppressed fluorescence

CGRP8-37: a membrane-impermeant CLR antagonist (VTHRLAGLLSRSGGVVKNNFVPTNVGSKAF; ends and bridges not checked; UniProt P06881 90-119, looked up, fragment)
Reversal of mechanical hyperalgesia [3]: not

O=C1NC(=NS(=O)(=O)c2cccc3ccccc23)S/C1=C\c1ccc(Br)cc1 [PitStop2]
Effect of inhibitor on cellular fluorescence of DIPMA-CO nanoparticles (HEK-293 cells): inhibited the accumulation of Coumarin 153 cellular fluorescence

O=C(N/N=C/c1cc(O)c(O)cc1O)c1cc2ccccc2cc1O [Dyngo4a]
Effect of inhibitor on cellular fluorescence of DIPMA-CO nanoparticles (HEK-293 cells): inhibited the accumulation of Coumarin 153 cellular fluorescence

C[C@@H](O[C@H]1OCCN(Cc2nc(=O)[nH][nH]2)[C@H]1c1ccc(F)cc1)c1cc(C(F)(F)F)cc(C(F)(F)F)c1 [aprepitant, 5-([(2R,3S)-2-((R)-1-[3,5-Bis(trifluoromethyl)phenyl]ethoxy)-3-(4-fluorophenyl)morpholino]methyl)-1H-1,2,4-triazol-3(2H)-one]
Inhibition of capsaicin-evoked allodynia at 1 h ([4]; 5 μl i.t., 100 nM AP, 30 min before capsaicin): 16±4%
Time at which the effect is lost / not detected ([4]; 100 nM AP): 3 h
Time at which the effect is lost / not detected ([4]; 100 nM AP, listed as AP): 1.5 h
Analgesia on the first hour ([4]; single i.t. dose 30 minutes prior to capsaicin (Example 9)): 30%
Inhibition of CFA hyperalgesia at 1.5 h ([1]; 100 nM AP): 30±6%
Inhibition of CFA hyperalgesia at 1.5 h ([1]; 300 nM AP): 47±3%
Duration of reversal of hyperalgesia ([1]; free AP 100 or 300 nM, DIPMA-AP 100 nM AP, i.t.): 2 to 3 h
Effect on withdrawal threshold ([2]; 10 μl i.t., 100 nM, 10 days after SNS): did not modify withdrawal threshold
Maximum inhibition of hyperalgesia, after 1 h ([2]; 10 μl i.t., 300 nM): 40±2%
Time of return to baseline ([2]; i.t., 300 nM): 2.5 h
Inhibition of hyperalgesia after 1 h ([2]; i.t., 1 μM): 75±4%
Time of return to baseline ([2]; i.t., 1 μM): 3 h
Duration of effect [5]: 2 h
Improvement in pressure, Randall-Selitto [5]: 20 g
Pain recovery [5]: ~25%
Effect on C-reflex [6]: decreased the C-reflex, but only at 30 min
Effect on wind-up [6]: did not affect wind-up
Effect on SP-induced firing of spinal neurons [7]: did not affect the onset, rate or duration of SP-induced firing

CO/C1=C\C(C)=C\[C@@H](C)[C@@H](O)[C@@H](C)C/C(C)=C/C=C/[C@H](OC)[C@@H]([C@@H](C)[C@@H](O)[C@H](C)[C@@]2(O)C[C@@H](O)[C@H](C)[C@@H](C(C)C)O2)OC1=O [Bafilomycin A1]
Effect of inhibitor on cellular fluorescence of DIPMA-CO nanoparticles (HEK-293 cells): suppressed fluorescence
Effect of inhibitor on cellular fluorescence of DIPMA-CO nanoparticles (HEK-293 cells; listed as Bafilomycin A): inhibited the accumulation of Coumarin 153 cellular fluorescence
